# Values of other authors in patent US20080275118A1, “HEALTH AND COSMETIC COMPOSITION AND REGIME FOR STIMULATING HAIR GROWTH AND THICKENING ON THE HEAD, INCLUDING THE SCALP, EYELASHES, AND EYEBROWS, AND WHICH DISCOURAGES HAIR LOSS” (priority 2008, published 2008).
# Test system: scalp hair
# Settings: in man, tests carried out on the scalp; Roenigk 1988
compound,measurement,value
C=CC(O)(C/C=C/[C@H]1[C@H](O)CC(=O)[C@@H]1C/C=C\CCCC(=O)OC)CCCC (stereo partly shown) [viprostol],hair density,increasing hair density
